One compound from patent US9248124B2, “Use of inhibitors of IκB kinase for the treatment of cancer” (Millennium Pharmaceuticals, Inc., priority 2001, dated 2016) can be followed below.

Usually inhibition stands for the percentage by which the read-out fell short of the control.

Holding throughout (assay type): cell-based, human
One assay concerns STAT3 phosphorylation. Kind of assay: Immunoblot of IL-6 induced STAT3 phosphorylation in MM.1S cells. To be noted: IL-6 50 ng/mL for 5 min, compound 1 10 μM 90 min, FIG. 5. As for the experimental part:
MM cells were cultured with PS-341 or compound 1; harvested; washed; and lysed using lysis buffer: 50 mM Tris-HCl (pH 7.4), 150 mM NaCl, 1% NP-40, 5 mM EDTA, 5 mM NaF, 2 mM Na3VO4, 1 mM PMSF, 5 μg/mL leupeptin, and 5 μg/mL aprotinin. For detection of phospho-IκBα, IκBα, phospho-MAPK, phospho-STAT3, ERK2 or alpha-tubulin, cell lysates were subjected SDS-PAGE, transferred to PVDF membrane (Bio-Rad Laboratories, Hercules, Calif.), and immunoblotted with anti-phospho-IκBα, -IκBα, -phospho-MAPK, or -phospho-STAT3 Abs (Cell Signaling, Beverly, Mass.), and anti-alpha-tubulin (Sigma) Abs.
(In general: A western blot detects proteins with antibodies after separation by electrophoresis.)

In the next assay the test system is Akt phosphorylation. Kind of assay: Phosphorylation of Akt triggered by IL-6 in MM.1S cells. To be noted: compound 1 pre-treatment, data not shown.
The test system of assay [1] is MM.1S cells. Kind of assay: DNA synthesis ([3H]-TdR uptake) in MM.1S cells with Dex, IL-6, Thal or IMiD3. Particulars: 48 h. As to the method: Proliferation was measured as previously described (Hideshima et al., Blood 96:2943 (2000)). MM cells (3×10^4 cells/well) were incubated in 96-well culture plates (Costar, Cambridge, Mass.) in the presence of media, PS-341, compound 1 and/or Dex or recombinant human IL-6 (Genetics Institute, Cambridge, Mass.) for 48 h at 37° C. DNA synthesis was measured by [^3H]-thymidine ([^3H]-TdR, NEN Products, Boston, Mass.) uptake. Cells were pulsed with [^3H]TdR (0.5 μCi/well) during the last 8 h of 48 h cultures. All experiments were performed in triplicate.

Assay [2] concerns NF-κB activation in MM.1S cells. Kind of assay: Electrophoretic mobility shift assay (EMSA) of NF-κB activation in MM.1S cells. As to the method: Electrophoretic mobility shift analyses (EMSA) were carried out as in previous studies (Hideshima et al., Oncogene 20:4519 (2001); Hideshima et al., Cancer Res. 61:3071 (2001)). Briefly, MM.1S cells were pre-incubated with PS-341 (5 μM for 1 h) and compound 1 (10 μM for 90 min) before stimulation with TNFα (5 ng/mL) for 10 or 20 min. Cells were then pelleted, resuspended in 400 μL of hypotonic lysis buffer (20 mM HEPES, pH 7.9, 10 mM KCl, 1 mM EDTA, 0.2% Triton X-100, 1 mM Na3VO4, 5 mM NaF, 1 mM PMSF, 5 μg/mL leupeptin, 5 μg/mL aprotinin), and kept on ice for 20 min. After centrifugation (14000 g for 5 min) at 4° C., the nuclear pellet was extracted with 100 μL hypertonic lysis buffer (20 mM HEPES, pH 7.9, 400 mM NaCl, 1 mM EDTA, 1 mM Na3VO4, 5 mM NaF, 1 mM PMSF, 5 μg/mL leupeptin, 5 μg/mL aprotinin) on ice for 20 min. After centrifugation (14000 g for 5 min) at 4° C., the supernatant was collected as nuclear extract. […]
Since NF-κB activation requires phosphorylation, ubiquitination, and degradation of IκBα, we next examined whether compound 1 could inhibit NF-κB activation, assessed by EMSA. […]

The test system of the next assay is U266 cells. Kind of assay: Cell cycle profile by PI staining and flow cytometry, U266. To be noted: 10 μM for 24, 36 and 48 h, FIG. 4. As for the experimental part:
(§1) For cell cycle analysis, MM cells cultured for 24-48 h in compound 1 (10 μM), Dex (1 μM); IL-6 (20 ng/mL), or control media were harvested, washed with phosphate-buffered saline (PBS), fixed with 70% ethanol, and treated with 10 μg/mL of RNase (Roche Diagnostics Corp., Indianapolis, Ind.). Cells were then stained with propidium iodine (PI, Sigma) (5 μg/mL). For detection of ICAM-1 expression, MM cells cultured in TNFα (5 ng/mL) in the presence or absence of compound 1 (10 μM) were harvested, washed with PBS, and stained with mouse IgG isotype control or FITC-conjugated mouse anti-human CD54 Ab. Both cell cycle profile and ICAM-1 expression were determined using an Epics (Coulter Immunology, Hialeah, Fla.) flow cytometer, as in prior studies (Hideshima et al., Oncogene 20:4519 (2001)).

Assay [3] has as its system MM.1S cells. Kind of assay: Growth inhibition / viability by MTT assay in MM.1S cells with TNFα. As to the method:
The inhibitory effect of PS-341 and compound 1 on MM growth was assessed by measuring 3-(4,5-dimethylthiazol-2-yl)-2,5-diphenyl […] bromide (MTT) dye absorbance of the cells. Cells from 48 h cultures were pulsed with […] of 5 mg/mL MTT to each well for the last 4 h of 48 h cultures, followed by 100 μL isopropanol containing 0.04N HCl. Absorbance was measured at 570 nm using a spectrophotometer (Molecular Devices Corp., Sunnyvale Calif.).

Assay [4] concerns ICAM-1 expression on MM.1S and RPMI8226 cells. Kind of assay: Flow cytometry of TNFα-induced ICAM-1 expression on MM cells. Particulars: TNFα 5 ng/mL, compound 1 10 μM, 24 h, FIG. 10. As for the experimental part: as §1
(Flow cytometry measures light scatter and fluorescence of single cells or particles in a stream.)

Turning to `O=C(Nc1cc(Cl)cc2c1[nH]c1cnccc12)c1cccnc1` [compound 1, N-(6-chloro-9H-β-carbolin-8-yl)-nicotinamide], the STAT3 phosphorylation entry in the assay with STAT3 phosphorylation is recorded as “does not inhibit”. Moreover, the “Phosphorylation of Akt triggered by IL-6” value in the assay on Akt phosphorylation is recorded as “unaffected”. Further, the “inhibitory effect of IL-6 against IMiD3” value with MM.1S cells [1] (compound 1 10 μM, IL-6 20 ng/mL, FIG. 9) was “neutralized”. Further, the “protective effect of IL-6 on Dex-induced growth inhibition” value in the assay with MM.1S cells [1] (compound 1 0.4-10 μM, Dex 0.1 μM, IL-6 50 ng/mL, FIG. 8C) is “abrogated”. In addition, in the assay with MM.1S cells [1] (compound 1 1.5-12.5 μM, IL-6 0.5-50 ng/mL, dose dependent, FIG. 8B), the “constitutive and IL-6 induced DNA synthesis in MM.1S cells” value is “abrogated”. The “effect of compound 1 on Dex inhibition of proliferation” value in the assay on MM.1S cells [1] (compound 1 1.5-50 μM with Dex, FIG. 8A) is reported as “did not enhance”. Also, in assay [2] (compound 1 2.5-10 μM for 90 min, dose-dependent fashion, FIG. 6C), the “NF-κB activation triggered by TNFα (EMSA), dose dependence” value was “inhibits”. In addition, the “NF-κB activation (EMSA)” value in assay [2] (pre-treated 10 μM for 90 min, TNFα 5 ng/mL for 0-20 min, FIG. 2) is on record as “completely inhibited”. Moreover, the cell cycle profile entry with U266 cells is given as “induced G1 growth arrest, but not apoptosis”. Besides, in the assay on MM.1S cells [3] (Homo sapiens, MM1.S, TNFα 1 ng/mL in the presence of 10 μM compound 1, 48 h), the inhibition at 10 µM worked out at 60%. Besides, the “viability of MM.1S cells (MTT assay)” value in the assay on MM.1S cells [3] (TNFα 0.2 and 1 ng/mL in the presence of compound 1 2.5-10 μM, 48 h, p<0.001, FIG. 11) was “significantly decreased”. Further, the “TNFα-induced upregulation of ICAM-1 expression” value in assay [4] is recorded as “inhibits”.
